Here are results for 2 compounds from article PMC10272271, “MAM-2201 acute administration impairs motor, sensorimotor, prepulse inhibition, and memory functions in mice: a comparison with its analogue AM-2201” (Psychopharmacology, 2023).

For one assay, the target named is T1, human CB1 receptors (Homo sapiens, UniProt P21554).
T1 construct: host or cells: CHO cells
The assay is described as follows: Cyclic AMP assay, hCB1 CHO cells. It counts as cell-based. Particulars: for agonist behaviour (inhibition of forskolin-stimulated cAMP production): CHO cells, human CB1. The method, then:
CHO cells transfected with human CB1 or CB2 receptors were washed with PBS, detached with trypsin, and centrifuged for 10 min at 200 × g. The pellet containing 1 × 10^6 cells/assay was suspended in 0.5 ml of buffer containing150 mM NaCl, 2.7 mM KCl, 0.37 mM NaH2PO4, 1 mM MgSO4, 1 mM CaCl2, 5 mM HEPES, 10 mM MgCl2, and 5 mM glucose, at pH 7.4 and 37 °C. Cells were pre-incubated with 0.5 mM of the phosphodiesterase inhibitor 4-(3-butoxy-4-methoxybenzyl)-2-imidazolidinone (Ro 20–1724;) for 10 min in a shaking bath at 37 °C. The potency of the examined compounds to inhibit adenylate cyclase activity was determined in the presence of forskolin 1-µM stimulation. The reaction was terminated by the addition of cold 6% trichloroacetic acid (TCA) and the final aqueous solution was tested for cyclic AMP levels by a competition protein binding assay (AlphaScreen cAMP Detection Kit, Cat. Number 6760635D, Perkin Elmer Life and Analytical Sciences, USA) following the manufacturer’s instructions; Vincenzi et al. [2013]).
The protein concentration was determined according to a Bio-Rad method (500–0006; Bio-Rad Laboratories, Hercules, CA, USA) with bovine serum albumin as a reference standard. Inhibitory binding constants, Ki, were calculated from the IC50 values according to the Cheng and Prusoff equation: Ki = IC50/(1 + [C*]/KD*), where [C*] is the concentration of the radioligand and KD* its dissociation constant. Functional experiments were analyzed by non-linear regression analysis using the equation for a sigmoid concentration–response curve (GraphPad Prism, USA). All the data are expressed as the mean ± SEM of three independent experiments.

The next assay deals with CD-1 male mice. The assay can be described thus: Novel Object Recognition (NOR) test. It counts as in vivo, mouse. The method, then: This test was performed according to the method reported by Ennaceur and Delacour ([1988]) and Antunes and Biala (2012). The test was conducted in three phases: habituation, familiarization, and choice. Firstly, CD-1 mice (n = 10/group) were subjected to a 3-day habituation phase, conducted by placing each animal into the NOR chamber (a square open field 60 cm × 60 cm × 40 cm, dark PVC plastic box) located in a dimly lit (50 lx), sound-attenuated and acclimatized room. Mice were allowed to explore freely for 20 min/day. No objects were placed in the box during the habituation trial. Twenty-four hours (h) after last habituation section, the familiarization trial was conducted by placing the mouse in the field in which two identical objects (A, A) were positioned in the corners of the arena approximately 6 cm from the walls. Mice were placed at the mid-point of the wall opposite to the objects and allowed to explore them for 15 min. Fifteen minutes after the familiarization phase, mice were injected with vehicle or drug (MAM-2201 and AM-2201) and tested in two consecutive choice sections performed 2 h (short-term memory) and 24 h (long-term memory) after the drug administration. During the choice test at 2 h, one of the two familiar objects (A) was replaced with a new one (novel; B), different in shape, dimension, and color. Each mouse was then placed in the apparatus and left free to explore the objects (A and B) for 5 min. In the choice test given at 24 h, the mice explored the open field for 5 min in the presence of one familiar (A) and one novel object (C, different from B). Exploration was defined as the time (s) during which the mouse nose was in contact with the object or directed toward it at a distance ≤ 2 cm. Turning around the object was not considered as exploratory behavior.
All experiments were performed using the ANY-maze video tracking system (Ugo Basile, application version 4.99 g Beta) and subsequently analyzed by an observer blind to the mouse treatment and to which object was the novel one. Exploration time of familiar (A) and novel (B) object was detected. The novel object preference was quantified as the Recognition Index (RI) calculated as: RI=novelB-familiarA/novelB+familiarA. Using this metric, scores approaching zero reflects no preference (impairment of recognition memory), positive values reflect preference for the novel object (good recognition memory) while negative numbers reflect preference for the familiar (impairment of recognition memory). Moreover, the total exploration time (s) spent by the animal in the choice phase at 2 h (familiar A + novel B) and 24 h (familiar A + novel C) was calculated to investigate the effect of drugs on object exploration.
The objects to be discriminated by mice were 7 sets of novel and familiar objects of different material (plastic, glass, or ceramic), shape (cube, parallelepiped, and cylinder), dimension (height: 3–8 cm; width: 6–8), and color (light yellow, red and blue). The set of objects used in the familiarization phase (two identical A, A objects) was used in the subsequent vehicle/drug conditions at 2 and 24 h. The choice of object for novel or familiar was counterbalanced and the position of each object was also alternated between trials to avoid any misinterpretation of data. The object weight was such that they could not be displaced by mice. To avoid mice olfactory cues, objects and apparatus were carefully cleaned with a dilute (5%) ethanol solution and water between animal trials and also between familiarization and choice phase (executed 2 and 24 h after the familiarization phase). Animals that spent less than 10 s exploring both objects were excluded from the study and replaced by other animals.

A further assay concerns the target CB2 receptors. Details: method as in Howlett et al. [2002]; Hess et al. [2015]. The note with it: ref Howlett et al. [2002]; Hess et al. [2015]; read-out: CB2 receptor Ki; cited from earlier work.

T1 sequence (P21554 whole entry): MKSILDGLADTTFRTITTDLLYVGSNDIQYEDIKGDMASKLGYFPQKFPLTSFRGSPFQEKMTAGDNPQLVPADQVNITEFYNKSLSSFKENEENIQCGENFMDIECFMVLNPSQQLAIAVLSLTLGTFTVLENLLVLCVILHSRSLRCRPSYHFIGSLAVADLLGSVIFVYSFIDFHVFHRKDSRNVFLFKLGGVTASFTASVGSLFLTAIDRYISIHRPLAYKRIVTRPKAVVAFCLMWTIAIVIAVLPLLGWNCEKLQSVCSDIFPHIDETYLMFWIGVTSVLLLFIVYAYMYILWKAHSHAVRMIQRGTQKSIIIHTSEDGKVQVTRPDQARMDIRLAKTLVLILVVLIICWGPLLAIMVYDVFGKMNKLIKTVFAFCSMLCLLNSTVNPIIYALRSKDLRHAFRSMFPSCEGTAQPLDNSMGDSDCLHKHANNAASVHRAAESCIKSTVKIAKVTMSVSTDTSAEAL

Broadly, the IC50 is the concentration at which inhibition is half-maximal. Usually Ki stands for a dissociation constant, usually derived from enzyme kinetics or from competition with a known ligand. For the compound `O=C(c1cccc2ccccc12)c1cn(CCCCCF)c2ccccc12` [AM-2201, 1-[(5-Fluoropentyl)-1H-indol-3-yl](1-naphthylenyl) methanone], the IC50 on human CB1 receptors came out at 2.84 ± 0.21 nM. Further, the “agonist behaviour (inhibition of forskolin-stimulated cAMP production)” value on human CB1 receptors is reported as “full agonists”. The “effect on Total Object Exploration (TOE) time” value in the assay on CD-1 male mice (0.1 mg/kg i.p.) was “did not alter”; in the assay with CD-1 male mice (1 mg/kg i.p., 2 and 24 h), “impaired”. For the same compound, the “effect on Recognition Index (RI)” value with CD-1 male mice (0.1 mg/kg i.p., 2 h) was “RI reduction”; in the assay with CD-1 male mice (1 mg/kg i.p., 2 h) it was “reversal”; with CD-1 male mice (0.1 and 1 mg/kg i.p., 24 h), “significant reduction”. Further, at CB2 receptors, the Ki was 2.6 nM.
In the case of `Cc1ccc(C(=O)c2cn(CCCCCF)c3ccccc23)c2ccccc12` [MAM-2201, 1-[(5-fluoropentyl)-1H-indol-3-yl](4-methyl-1-naphthalenyl) methanone], on human CB1 receptors, inhibition was half-maximal at 1.26 ± 0.56 nM (IC50). Besides, the “agonist behaviour (inhibition of forskolin-stimulated cAMP production)” value on human CB1 receptors is on record as “full agonists”. For the same compound, the “effect on Total Object Exploration (TOE) time” value in the assay on CD-1 male mice (0.1 mg/kg i.p.) is listed as “did not alter”; with CD-1 male mice (1 mg/kg i.p., 2 and 24 h), “impaired”. The “effect on Recognition Index (RI)” value is recorded as “significantly reduced” in the assay on CD-1 male mice (0.1 mg/kg i.p., 2 h); “negative score” in the assay on CD-1 male mice (1 mg/kg i.p., 2 h); “significant decrease” with CD-1 male mice (0.1 and 1 mg/kg i.p., 24 h). Also, on CB2 receptors, the Ki is 0.582 ± 0.123 nM.
